# Source: patent US20080300298A1, “Honokiol Derivates For the Treatment of Proliferative Disorders” (priority 2005, published 2008)
# Assays:
# MM.1S cells = assay: [3H]-thymidine uptake with IL-6, IGF-1 or BMSCs; format: cell-based, human; details: 48 h
# Protocol: DNA synthesis was measured as previously described, see, for example, Hideshima et al Blood. 2000; 96:2943-2950. Cells in 96-well culture plates were pulsed with 0.5 μCi/well of [^3H]-thymidine (Perkin Elmer, Boston, Mass.) during the last 8 h of culture, harvested onto glass filters with an automatic cell harvester (Cambridge Technology, Cambridge, Mass.), and counted using the LKB Betaplate scintillation counter (Wallac, Gaithersburg, Md.). All experiments were performed in triplicate.
# Assessment of HNK-induced cytotoxicity against patient MM cells: Cytotoxicity of HNK against fresh MM cells was determined as previously determined, see, for example, Mitsiades et al Cancer Cell. 2004; 5:221-230. […] A CD38^high fraction enriched for MM cells was determined in side and forward scatter panel in each case. The expression of CD138 on gated cells was also evaluated. After HNK-treatment for 48 h, cells were harvested and percentage of CD38^high cells with or without HNK-treatment was evaluated. […] Cells were stained with propidium iodide (PI; 50 μg/mL; Sigma, St Louis, Mo.), and cell cycle profile was determined by using the program M software on an EPICS XL flow cytometer (Beckman Coulter, Hialeah, Fla.). […] Fluorescence intensity of TUNEL and APO 2.7 staining was determined using on EPICS XL flow cytometer. Cytotoxicity was determined by trypan blue exclusion assay. […]
# BT-474 cells = assay: MTT proliferation assay; format: cell-based; details: Homo sapiens, BT-474, 24 h, read-out: concentration that reduced viability by 50% (LC50)
# Protocol: (§1) Cell lines: All cell lines were obtained from American Type Culture Collection. The breast cancer cell lines used: MCF-7 and BT-474 cells were grown in DMEM medium containing 10% FCS; MDA-MB-231, SK-BR-3, MDA-MB-436 and T47-D cells were grown in RPMI medium containing 10% FCS. The glioblastoma multiforme cell lines (U343 and T98G) were maintained in DMEM modified medium containing 10% FCS.
# (§2) 3-(4,5-dimethylthiazol-2-yl)-2,5-diphenyltetrazolium bromide (MTT) proliferation assays: 3×10^3 cells/well were plated in 96-well plates, cultured in the appropriate culture media containing 10% FCS, and treated with either control vehicle or various concentrations of HNK, alone or with a secondary drug, as indicated. All secondary drugs were freshly diluted in growth media and immediately added to cells along with the HNK. After 24 hours of incubation at 37° C., 5% CO2, the cells were cultured for four hours with 10% MTT reagent (5 mg/ml; Sigma-Aldrich, St. Louis, Mo.). The medium was aspirated, and the cells were dissolved by dimethyl sulfoxide (DMSO). Absorbance of the formazan product was measured by an enzyme-linked immunosorbent assay reader (Macintosh).
# (§3) HNK inhibits growth of breast cancer cells. Breast cancer cells were treated with different concentrations of HNK for 24 hours, and MTT assays were conducted to assess viability. The selected cell lines have different phenotypes and different expression patterns of the estrogen receptor (ER), Her2 and p53, and thus represent various subclasses of breast cancer. […] Similar analyses were also conducted for two glioblastoma multiforme cell lines, U343 and T98G. Over the same dose-range (10-70 μM), both cell lines were resistant to HNK (FIGS. 34 A, B).
# SKBR-3 cell = assay: MTT proliferation assay; format: cell-based; details: Homo sapiens, SK-BR-3, 24 h, read-out: concentration that reduced viability by 50% (LC50)
# Protocol: as §1, §2, §3
# [1] = system: glioblastoma multiforme cell lines, U343 and T98G; assay: MTT proliferation assay; format: cell-based; details: 10-70 μM, 24 hours
# Protocol: as §1, §2, §3
smiles,measurement,setting,value
"C=CCc1ccc(O)c(-c2ccc(O)c(CC=C)c2)c1 [HNK, Honokiol]",DNA synthesis triggered by binding to BMSCs,MM.1S cells; MM.1S on BMSCs of MM patients,abrogated
same,growth inhibition in the presence of IL-6 or IGF-1,MM.1S cells; MM.1S,Neither IL-6 nor IGF-1 protected against HNK induced growth inhibition
same,CC50,BT-474 cells,50 µM
same,CC50,SKBR-3 cell,29 µM
same,viability of glioblastoma multiforme cell lines,[1],resistant
